Measured values: the supplement of paper PMC10307832

What was measured:
Experiment in all cases: relative viability (nuclei count vs DMSO), 5 days (fraction); higher = more cells survive
[1] = compound: CCC1=CN=CN=C1N2CCN(CC2)CC3=NC4=C(N3)C=C(C=C4)C(F)(F)F + Cc1nc(NC(=O)N2CCC[C@H]2C(N)=O)sc1-c1ccnc(C(C)(C)C(F)(F)F)c1 [Alpelisib] (partner 2 µM)
Procedure, shortened: (§1)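 Each reported value is a median over duplicate plates. It expresses relative viability: treated-well nuclei count divided by vehicle-well nuclei count. Lung cancer cell lines in 1536-well plates were dosed by pin tool a day after seeding, alone with one drug or with a fixed anchor-drug dose plus five library-drug doses (not always all listed) in √10 steps, and nuclei were counted after 5 days.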

[2] = compound: CCn1c(-c2nonc2N)nc2cnc(Oc3cccc(NC(=O)c4ccc(OCCN5CCOCC5)cc4)c3)cc21 + Nc1ncn([C@H]2C[C@H](O)[C@@H](CO)O2)c(=O)n1 [Decitabine] (partner 2 µM)
Procedure, shortened: as §1

[3] = compound: N=C1NC(=O)/C(=C/c2ccc(O)cc2)S1 [Mirin] + CS(=O)(=O)N1CCN(Cc2cc3nc(-c4cccc5[nH]ncc45)nc(N4CCOCC4)c3s2)CC1 [Pictilisib] (partner 1 µM)
Procedure, shortened: as §1

[4] = compound: N=C1NC(=O)/C(=C/c2ccc(O)cc2)S1 [Mirin] + N=C(N)NC(=N)NCCc1ccccc1 [Phenformin] (partner 250 µM)
Procedure, shortened: as §1

NCI-H1355
relative viability ([1]; first compound 0.04 µM): 0.815
relative viability ([1]; first compound 0.1265 µM): 0.74
relative viability ([1]; first compound 0.4 µM): 0.807
relative viability ([1]; first compound 1.265 µM): 0.732
relative viability ([1]; first compound 4 µM): 0.797
relative viability ([2]; first compound 0.04 µM): 0.31
relative viability ([2]; first compound 0.1265 µM): 0.36
relative viability ([2]; first compound 0.4 µM): 0.358
relative viability ([2]; first compound 1.265 µM): 0.364
relative viability ([2]; first compound 4 µM): 0.307
relative viability ([3]; first compound 0.25 µM): 0.48
relative viability ([3]; first compound 0.7906 µM): 0.254
relative viability ([3]; first compound 2.5 µM): 0.419
relative viability ([3]; first compound 7.906 µM): 0.427
relative viability ([3]; first compound 25 µM): 0.505
relative viability ([4]; first compound 0.25 µM): 0.472
relative viability ([4]; first compound 0.7906 µM): 0.463
relative viability ([4]; first compound 2.5 µM): 0.456
relative viability ([4]; first compound 7.906 µM): 0.47
relative viability ([4]; first compound 25 µM): 0.521

NCI-H2347
relative viability ([1]; first compound 0.04 µM): 1.07
relative viability ([1]; first compound 0.1265 µM): 1.07
relative viability ([1]; first compound 0.4 µM): 0.948
relative viability ([1]; first compound 1.265 µM): 0.769
relative viability ([1]; first compound 4 µM): 0.938
relative viability ([2]; first compound 0.04 µM): 0.607
relative viability ([2]; first compound 0.1265 µM): 0.565
relative viability ([2]; first compound 0.4 µM): 0.624
relative viability ([2]; first compound 1.265 µM): 0.461
relative viability ([2]; first compound 4 µM): 0.434
relative viability ([3]; first compound 0.25 µM): 0.564
relative viability ([3]; first compound 0.7906 µM): 0.622
relative viability ([3]; first compound 2.5 µM): 1.71
relative viability ([3]; first compound 7.906 µM): 0.749
relative viability ([3]; first compound 25 µM): 0.595
relative viability ([4]; first compound 0.25 µM): 0.334
relative viability ([4]; first compound 0.7906 µM): 0.328
relative viability ([4]; first compound 2.5 µM): 0.52
relative viability ([4]; first compound 7.906 µM): 0.453
relative viability ([4]; first compound 25 µM): 0.552

NCI-H1651
relative viability ([1]; first compound 0.04 µM): 1.01
relative viability ([1]; first compound 0.1265 µM): 0.961
relative viability ([1]; first compound 0.4 µM): 0.876
relative viability ([1]; first compound 1.265 µM): 0.818
relative viability ([1]; first compound 4 µM): 0.907
relative viability ([2]; first compound 0.04 µM): 0.74
relative viability ([2]; first compound 0.1265 µM): 0.728
relative viability ([2]; first compound 0.4 µM): 0.581
relative viability ([2]; first compound 1.265 µM): 0.271
relative viability ([2]; first compound 4 µM): 0.488
relative viability ([3]; first compound 0.25 µM): 0.62
relative viability ([3]; first compound 0.7906 µM): 0.597
relative viability ([3]; first compound 2.5 µM): 0.573
relative viability ([3]; first compound 7.906 µM): 0.488
relative viability ([3]; first compound 25 µM): 0.554
relative viability ([4]; first compound 0.25 µM): 0.332
relative viability ([4]; first compound 0.7906 µM): 0.34
relative viability ([4]; first compound 2.5 µM): 0.324
relative viability ([4]; first compound 7.906 µM): 0.336
relative viability ([4]; first compound 25 µM): 0.319

NCI-H1975
relative viability ([1]; first compound 0.04 µM): 0.641
relative viability ([1]; first compound 0.1265 µM): 0.633
relative viability ([1]; first compound 0.4 µM): 0.605
relative viability ([1]; first compound 1.265 µM): 0.61
relative viability ([1]; first compound 4 µM): 0.527
relative viability ([2]; first compound 0.04 µM): 0.311
relative viability ([2]; first compound 0.1265 µM): 0.289
relative viability ([2]; first compound 0.4 µM): 0.293
relative viability ([2]; first compound 1.265 µM): 0.228
relative viability ([2]; first compound 4 µM): 0.201
relative viability ([3]; first compound 0.25 µM): 0.307
relative viability ([3]; first compound 0.7906 µM): 0.251
relative viability ([3]; first compound 2.5 µM): 0.302
relative viability ([3]; first compound 7.906 µM): 0.355
relative viability ([3]; first compound 25 µM): 0.282
relative viability ([4]; first compound 0.25 µM): 0.448
relative viability ([4]; first compound 0.7906 µM): 0.375
relative viability ([4]; first compound 2.5 µM): 0.452
relative viability ([4]; first compound 7.906 µM): 0.452
relative viability ([4]; first compound 25 µM): 0.425

COR-L23
relative viability ([1]; first compound 0.04 µM): 0.899
relative viability ([1]; first compound 0.1265 µM): 0.721
relative viability ([1]; first compound 0.4 µM): 0.886
relative viability ([1]; first compound 1.265 µM): 0.702
relative viability ([1]; first compound 4 µM): 0.783
relative viability ([2]; first compound 0.04 µM): 0.469
relative viability ([2]; first compound 0.1265 µM): 0.401
relative viability ([2]; first compound 0.4 µM): 0.215
relative viability ([2]; first compound 1.265 µM): 0.186
relative viability ([2]; first compound 4 µM): 0.166
relative viability ([3]; first compound 0.25 µM): 0.8
relative viability ([3]; first compound 0.7906 µM): 0.721
relative viability ([3]; first compound 2.5 µM): 0.854
relative viability ([3]; first compound 7.906 µM): 0.738
relative viability ([3]; first compound 25 µM): 0.687
relative viability ([4]; first compound 0.25 µM): 0.465
relative viability ([4]; first compound 0.7906 µM): 0.46
relative viability ([4]; first compound 2.5 µM): 0.45
relative viability ([4]; first compound 7.906 µM): 0.469
relative viability ([4]; first compound 25 µM): 0.481

HCC-44
relative viability ([1]; first compound 0.04 µM): 0.789
relative viability ([1]; first compound 0.1265 µM): 0.746
relative viability ([1]; first compound 0.4 µM): 0.815
relative viability ([1]; first compound 1.265 µM): 0.743
relative viability ([1]; first compound 4 µM): 0.713
relative viability ([2]; first compound 0.04 µM): 0.868
relative viability ([2]; first compound 0.1265 µM): 1.06
relative viability ([2]; first compound 0.4 µM): 0.738
relative viability ([2]; first compound 1.265 µM): 0.728
relative viability ([2]; first compound 4 µM): 0.429
relative viability ([3]; first compound 0.25 µM): 0.7
relative viability ([3]; first compound 0.7906 µM): 0.819
relative viability ([3]; first compound 2.5 µM): 0.602
relative viability ([3]; first compound 7.906 µM): 0.541
relative viability ([3]; first compound 25 µM): 0.474
relative viability ([4]; first compound 0.25 µM): 0.165
relative viability ([4]; first compound 0.7906 µM): 0.102
relative viability ([4]; first compound 2.5 µM): 0.126
relative viability ([4]; first compound 7.906 µM): 0.213
relative viability ([4]; first compound 25 µM): 0.314

LOU-NH91
relative viability ([1]; first compound 0.04 µM): 0.621
relative viability ([1]; first compound 0.1265 µM): 0.689
relative viability ([1]; first compound 0.4 µM): 0.712
relative viability ([1]; first compound 1.265 µM): 0.63
relative viability ([1]; first compound 4 µM): 0.72
relative viability ([2]; first compound 0.04 µM): 0.794
relative viability ([2]; first compound 0.1265 µM): 0.698
relative viability ([2]; first compound 0.4 µM): 0.65
relative viability ([2]; first compound 1.265 µM): 0.561
relative viability ([2]; first compound 4 µM): 0.533
relative viability ([3]; first compound 0.25 µM): 0.499
relative viability ([3]; first compound 2.5 µM): 0.496
relative viability ([3]; first compound 7.906 µM): 0.502
relative viability ([3]; first compound 25 µM): 0.46
relative viability ([4]; first compound 0.25 µM): 0.718
relative viability ([4]; first compound 0.7906 µM): 0.671
relative viability ([4]; first compound 2.5 µM): 0.703
relative viability ([4]; first compound 7.906 µM): 0.668
relative viability ([4]; first compound 25 µM): 0.856
